Laboratory results reported in US9206132B2, “Use of a novel aminopyridine derivative to prevent or treat cancer” (Medicinal Bioconvergence Research Center, priority 2012, dated 2015).

Key:
AIMP2-DX2 [1] = assay: AIMP2-DX2 luciferase assay in pGL-DX-2 transfected A549 lung cancer cells; details: A549 transfected with pGL-DX-2, cultured 24 hours, 4 hours treatment, lower = more inhibition, N.C (DMSO) 20089
Experimental: (§1) After 24 hours in culture, transfected lung cancer cells were treated with the compounds of the library. 4 hours later, luciferase activity was measured with a luminometer using a luciferase assay kit according to a manufacturer protocol (Promega, US).
(§2) Lung cancer cell lines A549 and H460 were transfected with pGL-DX-2, cultured for 24 hours, and treated with the newly synthesized compounds. After further culturing for 4 hours, luciferase activity was measured.

AIMP2-DX2 [2] = assay: AIMP2-DX2 luciferase assay in pGL2-DX2 transfected H460 lung cancer cells; details: H460 transfected with pGL-DX-2, cultured 24 hours, 4 hours treatment, lower = more inhibition, N.C (DMSO) 8627
Experimental: as §1, §2

| SMILES | AIMP2-DX2 Activity in A549 cells (AIMP2-DX2 [1]) | AIMP2-DX2 Activity in H460 cells (AIMP2-DX2 [2]) |
| --- | --- | --- |
| CCOC(=O)C(C)C(=O)Nc1ccc(Cl)cn1 (stereo not shown) [No. 1, ethyl 3-[(5-chloropyridin-2-yl)amino]-2-methyl-3-oxopropanoate] | 5295 | 7668 |
| CCOC(=O)CC(=O)Nc1cccc(C)n1 [No. 2, ethyl 3-[(6-methylpyridin-2-yl)amino]-3-oxopropanoate] | 8070 | 7740 |
| CCOC(=O)CC(=O)Nc1cnc2ccccc2c1 [No. 3, ethyl 3-oxo-3-(quinolin-3-ylamino)propanoate] | 17967 | 5447 |
| CCOC(=O)CC(=O)Nc1nc(C)ccc1C [No. 4, ethyl 3-[(3,6-dimethylpyridin-2-yl)amino]-3-oxopropanoate] | 18252 | 4914 |
| CCOC(=O)CC(=O)Nc1cc(O)ccn1 [No. 5, ethyl 3-[(4-hydroxypyridin-2-yl)amino]-3-oxopropanoate] | 5721 | 4984 |
| CCOC(=O)C(C)C(=O)Nc1cnc2ccccc2c1 (stereo not shown) [No. 6, ethyl 2-methyl-3-oxo-3-(quinolin-3-ylamino)propanoate] | 6011 | 5083 |
| CCOC(=O)C(C)C(=O)Nc1cccc(C)n1 (stereo not shown) [No. 7, ethyl 2-methyl-3-[(6-methylpyridin-2-yl)amino]-3-oxopropanoate] | 6568 | 6082 |
| CCOC(=O)CC(=O)Nc1ccc(Cl)cn1 [No. 8, ethyl 3-[(5-chloropyridin-2-yl)amino]-3-oxopropanoate] | 8045 | 6348 |
